Assay results: patent publication US10975049B2, “Nicotinyl alcohol ether derivative, preparation method therefor, and pharmaceutical composition and uses thereof” (Institute of Materia Medica, Chinese Academy of Medical …, priority 2016, dated 2021)
Counter-ions that a name gives are not always drawn. One block for each compound: values may come before it.

Assays:
[1] = target: interaction between PD-1 and PD-L1 (Homo sapiens (Human), UniProt Q9NZQ7); test: Cisbio PD-1/PD-L1 binding assay kit (HTRF); conditions: molecular level, read-out: IC50 (M), inhibitory activity on the interaction between PD-1 and PD-L1
interaction between PD-1 and PD-L1, sequence (Q9NZQ7 19-238): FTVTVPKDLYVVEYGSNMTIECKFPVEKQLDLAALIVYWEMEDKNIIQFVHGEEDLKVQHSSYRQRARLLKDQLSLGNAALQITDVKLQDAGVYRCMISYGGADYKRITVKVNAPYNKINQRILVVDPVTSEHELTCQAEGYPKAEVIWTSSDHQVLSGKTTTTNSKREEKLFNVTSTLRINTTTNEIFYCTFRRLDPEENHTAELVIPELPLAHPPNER
From the text: 1. In vitro activity evaluation: Cisbio PD-1/PD-L1 binding assay kit was applied for the detection method of in vitro enzymology level.
Screening Principles and Methods of PD-1/PD-L1 Small Molecule Inhibitors
1) Principle: PD-1 protein is with HIS tag, and PD-1 ligand PD-L1 is with hFc tag. Eu labeled anti-hFc antibody and XL665 labeled anti-HIS antibody are combined with the above two label proteins respectively. After laser excitation, energy can be transferred from donor Eu to receptor XL665, allowing XL665 to glow.
2) Experimental method: The specific method can be referred to Cisbio's PD-1/PD-L1 Kit (item 64CUS000C-2). Reagents should be dispensed in the following order. For 384-well white ELISA plate, 2 μl of diluent or target compound diluted with diluent was added to each well, and then 4 μl of PD-1 protein and 4 μl of PD-L1 protein were added per well, incubated for 15 min at room temperature; and 10 μl of a mixture of anti-Tag1-Eu3^+ and anti-Tag2-XL665 was added per well and incubated for 1 h to 4 h at room temperature and the fluorescence signals at 665 nm and 620 nm were measured with an Envison instrument. HTRF rate=(665 nm/620 nm)*10^4. 8-10 concentrations were detected for each compound and IC50 was calculated by Graphpad software.

[2] = system: high metastatic melanoma B16F10; test: Subcutaneous xenograft model of high metastatic melanoma B16F10; type: in vivo, C57BL/6 or Bablc mice; conditions: for T/C % (relative tumor proliferation rate) / TGI % (tumor growth inhibition rate): tumor weight
Experimental: (§1) The method in subcutaneous xenograft tumor was as follows. The cultured specific tumor cells were digested and collected by centrifugation, and washed with sterile physiological saline for two times and then counted. The cell concentration was adjusted to 5×10^6/ml by physiological saline, and 0.2 ml of cell suspension was inoculated to the right armpit of C57BL/6 or Bablc mice. After inoculation, the animals were randomly divided into two groups in next day. Each group had 6-7 mice. After weighing, the animals were dosed once each day to monitor tumor size. When the tumor size reached to a certain size, the mice was weighed and blood was collected from mice orbit and then the mice were killed by removing the neck. The tumor tissue, thymus tissue and spleen tissue were collected and weighed respectively. Finally, the tumor growth inhibition rate was calculated, and the tumor growth inhibition rate was used to evaluate the level of anti-tumor effect.
(§2) In the study of the mechanism of the above models, the method of flow cytometry was adopted in measuring the total cell proportion of T cells of various types. The specific steps were as follows. The samples were treated at first. For blood tissue, the orbital blood was taken. The red cell lysate was used to remove the red blood cells, and then the PBS buffer was used for wash. After being washed, the cells were collected. For the tumor and spleen, the tissues were grinded with a homogenizer, and then diluted with PBS buffer, then filtered by 300 meshes of screen. After the number of cells was counted for each sample, 1×10^6 cells were added into EP tube and stained for flow antibody. After incubation for 1 h on ice, each sample was washed 2 times with PBS buffer. The cell population was analyzed by VERSE flow instrument of BD Company. The total number of cells in tumor tissue was 1×10^5 and the total number of cells in blood and spleen tissues was 1×10^4. The ratio of T cells to total number of cells was analyzed after flow cytometry.

[3] = system: high metastatic melanoma B16F10; test: Lung metastasis model of high metastatic melanoma B16F10; type: in vivo, C57BL/6 mice; conditions: for Tumor number X ± SD: lung; for T/C % (relative tumor proliferation rate) / TGI % (tumor growth inhibition rate): tumor number
Experimental: The method in B16F10 lung metastasis model was as follows. The cultured B16F10 tumor cells were digested and centrifuged and washed for two times with sterile physiological saline and then counted. And the cell concentration was adjusted to 2.5×10^6/ml by physiological saline. 0.2 ml of cells were injected into the C57BL/6 mice through the tail vein, and the tumor cells will gather in the lung of the mice. After inoculation, the animals were randomly divided into two groups in next day. Each group had 6-7 mice. After weighing, the animals were dosed once each day. After 3 weeks, the mice were weighed and killed, the lung tissue was collected and weighed, and the number of lung tumors was counted after being fixed by the Bouin's Fluid. Finally, the tumor growth inhibition rate was calculated, and the tumor growth inhibition rate was used to evaluate the level of anti-tumor effect.
as §2

mouse breast cancer EMT6 = test: Subcutaneous xenograft model of mouse breast cancer EMT6; type: in vivo, C57BL/6 or Bablc mice
Experimental: as §1

mouse colon cancer MC38 = test: Subcutaneous xenograft model of mouse colon cancer MC38; type: in vivo, C57BL/6 or Bablc mice; conditions: 60 mg/kg
Experimental: as §1

[4] = spleen, CTX group, dose not given

Structure (SMILES): O=P1(N(CCCl)CCCl)NCCCO1 (stereo not drawn) [Cyclophosphamide (CTX), Cyclophosphamide, reference compound]
Tumorweight(g) X ± SD ([2]; 80 mg/kg): 1.55 ± 0.59 g
Body weight (g) Mean ± SD Begin ([2]; 80 mg/kg): 20.3 ± 0.8 g
Body weight (g) Mean ± SD End ([2]; 80 mg/kg): 23.3 ± 1.4 g
T/C % (relative tumor proliferation rate) ([2]; 80 mg/kg): 60.00%
TGI % (tumor growth inhibition rate) ([2]; 80 mg/kg): 40.00%
CD3+ (%) T lymphocytes in spleen [2, 4]: 78.6 ± 2.5%
CD4+ (%) T lymphocytes in spleen [2, 4]: 24.6 ± 2.6%
CD8+ (%) T lymphocytes in spleen [2, 4]: 15.2 ± 3.1%
CD3+ (%) tumor-infiltrating T lymphocytes ([2]; CTX group, dose not given): 3.6 ± 1.5%
CD4+ (%) tumor-infiltrating T lymphocytes ([2]; CTX group, dose not given): 1.7 ± 0.4%
CD8+ (%) tumor-infiltrating T lymphocytes ([2]; CTX group, dose not given): 1.4 ± 0.3%
Body weight (g) Mean ± SD Begin ([3]; 80 mg/kg): 20.1 ± 0.8 g
Body weight (g) Mean ± SD End ([3]; 80 mg/kg): 21.4 ± 0.5 g
Tumor number X ± SD ([3]; 80 mg/kg): 18 ± 14
T/C % (relative tumor proliferation rate) ([3]; 80 mg/kg): 85.7%
TGI % (tumor growth inhibition rate) ([3]; 80 mg/kg): 14.3%
CD3+ percentage of T lymphocyte in mouse blood ([3]; CTX group, dose not given): 22.4 ± 5.5%
CD4+ percentage of T lymphocyte in mouse blood ([3]; CTX group, dose not given): 13.0 ± 2.4%
CD8+ percentage of T lymphocyte in mouse blood ([3]; CTX group, dose not given): 7.5 ± 2.4%
T/C % (relative tumor proliferation rate) (mouse breast cancer EMT6; 60 mg/kg): 14.1%
TGI % (tumor growth inhibition rate) (mouse breast cancer EMT6; 60 mg/kg): 85.9%
Tumorweight(g) X ± SD (mouse breast cancer EMT6; 60 mg/kg): 0.25 ± 0.17 g
Body weight (g) Mean ± SD Begin (mouse breast cancer EMT6; 60 mg/kg, begin): 18.4 ± 0.3 g
Body weight (g) Mean ± SD End (mouse breast cancer EMT6; 60 mg/kg, end): 19.4 ± 0.7 g
tumor growth inhibition rate (mouse breast cancer EMT6; Cyclophosphamide alone vs combination, dose not restated): 85%
T/C % (relative tumor proliferation rate) (mouse colon cancer MC38): 5.4%
TGI % (tumor growth inhibition rate) (mouse colon cancer MC38): 94.6%
Tumor weight(g) Mean ± SD (mouse colon cancer MC38): 0.17 ± 0.05 g
Body weight (g) Mean ± SD Begin (mouse colon cancer MC38; begin): 17.9 ± 0.6 g
Body weight (g) Mean ± SD End (mouse colon cancer MC38; end): 19.1 ± 0.8 g

Structure (SMILES): CS(=O)(=O)NCCNCc1cc(Cl)c(OCc2cccc(-c3ccccc3)c2Br)cc1OCc1cccnc1 [Example 16, N-(2-methanesulfonaminoethyl)-4-(2-bromo-3-phenylbenzyloxy)-5-chloro-2-(pyridin-3-yl-methyleneoxy)benzylamine]
IC50 [1]: 1.99e-07 M

Structure (SMILES): CC(=O)NCCNCc1cc(Cl)c(OCc2cccc(-c3ccccc3)c2Br)cc1OCc1cccnc1 [Example 17, N-(2-acetylaminoethyl)-4-(2-bromo-3-phenylbenzyloxy)-5-chloro-2-(pyridin-3-yl-methyleneoxy) benzylamine]
IC50 [1]: 5.51e-07 M

Structure (SMILES): C/C(=C\C#N)NCc1cc(Cl)c(OCc2cccc(-c3ccccc3)c2Br)cc1OCc1cccnc1 [Example 14, (E)-3-(4-(2-bromo-3-phenylbenzyloxy)-5-chloro-2-(pyridin-3-yl-methyleneoxy)benzylamino) but-2-enenitrile]
IC50 [1]: 2.69e-05 M

Structure (SMILES): CCOC(=O)[C@H](CO)NCc1cc(Cl)c(OCc2cccc(-c3ccccc3)c2Br)cc1OCc1cccnc1.Cl.Cl [Example 5, (S)-Ethyl N-(4-(2-bromo-3-phenylbenzyloxy)-5-chloro-2-(pyridin-3-yl-methyleneoxy)benzyl) serinate dihydrochloride]
Tumorweight(g) X ± SD ([2]; 15 mg/kg): 2.69 ± 1.99 g
Body weight (g) Mean ± SD Begin ([2]; 15 mg/kg): 20.4 ± 1.0 g
Body weight (g) Mean ± SD End ([2]; 15 mg/kg): 24.2 ± 2.2 g
T/C % (relative tumor proliferation rate) ([2]; 15 mg/kg): 104.26%
TGI % (tumor growth inhibition rate) ([2]; 15 mg/kg): −4.26%
Tumorweight(g) X ± SD ([2]; 45 mg/kg): 1.41 ± 0.60 g
Body weight (g) Mean ± SD Begin ([2]; 45 mg/kg): 20.3 ± 1.0 g
Body weight (g) Mean ± SD End ([2]; 45 mg/kg): 22.6 ± 1.4 g
T/C % (relative tumor proliferation rate) ([2]; 45 mg/kg): 54.73%
TGI % (tumor growth inhibition rate) ([2]; 45 mg/kg): 45.27%
proportion of tumor-infiltrating lymphocytes ([2]; result in words): increase
CD3+ (%) tumor-infiltrating T lymphocytes ([2]; 45 mg): 10.1 ± 4.5%
CD4+ (%) tumor-infiltrating T lymphocytes ([2]; 45 mg): 9.0 ± 4.7%
CD8+ (%) tumor-infiltrating T lymphocytes ([2]; 45 mg): 5.2 ± 2.8%
Body weight (g) Mean ± SD Begin ([3]; 15 mg/kg): 20.6 ± 0.7 g
Body weight (g) Mean ± SD End ([3]; 15 mg/kg): 20.2 ± 1.5 g
Tumor number X ± SD ([3]; 15 mg/kg): 18 ± 18
T/C % (relative tumor proliferation rate) ([3]; 15 mg/kg): 85.7%
TGI % (tumor growth inhibition rate) ([3]; 15 mg/kg): 14.3%
Body weight (g) Mean ± SD Begin ([3]; 45 mg/kg): 20.5 ± 0.6 g
Body weight (g) Mean ± SD End ([3]; 45 mg/kg): 21.2 ± 0.7 g
Tumor number X ± SD ([3]; 45 mg/kg): 16 ± 7
T/C % (relative tumor proliferation rate) ([3]; 45 mg/kg): 76.2%
TGI % (tumor growth inhibition rate) ([3]; 45 mg/kg): 23.8%
CD3+ percentage of T lymphocyte in mouse blood ([3]; 15 mg): 22.7 ± 4.8%
CD4+ percentage of T lymphocyte in mouse blood ([3]; 15 mg): 14.4 ± 3.3%
CD8+ percentage of T lymphocyte in mouse blood ([3]; 15 mg): 7.4 ± 1.9%
CD3+ percentage of T lymphocyte in mouse blood ([3]; 45 mg): 25.8 ± 3.0%
CD4+ percentage of T lymphocyte in mouse blood ([3]; 45 mg): 15.7 ± 2.5%
CD8+ percentage of T lymphocyte in mouse blood ([3]; 45 mg): 7.6 ± 1.8%
percentage of lymphocyte in mouse blood ([3]; result in words): increase

Structure (SMILES): O=C(O)[C@H](Cc1ccc(O)cc1)NCc1cc(Cl)c(OCc2cccc(-c3ccccc3)c2Br)cc1OCc1cccnc1 [Example 21, N-(4-(2-bromo-3-phenylbenzyloxy)-5-chloro-2-(pyridin-3-yl-methyleneoxy)benzyl) tyrosine]
IC50 [1]: 4.06e-07 M

Next, values leading:

IC50 [1]: 6.1e-08 M
Structure (SMILES): CC(C)C[C@H](NCc1cc(Cl)c(OCc2cccc(-c3ccccc3)c2Br)cc1OCc1cccnc1)C(=O)O [Example 20, N-(4-(2-bromo-3-phenylbenzyloxy)-5-chloro-2-(pyridin-3-yl-methyleneoxy)benzyl) leucine]

IC50 [1]: 2e-07 M
Structure (SMILES): CC(C)C(NCc1cc(Cl)c(OCc2cccc(-c3ccccc3)c2Br)cc1OCc1cccnc1)C(=O)O (stereo not drawn) [Example 13, N-(4-(2-bromo-3-phenylbenzyloxy)-5-chloro-2-(pyridin-3-yl-methyleneoxy)benzyl) valine]

IC50 [1]: 4.29e-08 M
Structure (SMILES): O=C(O)[C@@H](CO)NCc1cc(Cl)c(OCc2cccc(-c3ccccc3)c2Br)cc1OCc1cccnc1 [Example 8, (R)—N-(4-(2-bromo-3-phenylbenzyloxy)-5-chloro-2-(pyridin-3-yl-methyleneoxy)benzyl) serine]

IC50 [1]: 8.23e-08 M
Structure (SMILES): CC(C)OC(=O)[C@H](CO)NCc1cc(Cl)c(OCc2cccc(-c3ccccc3)c2Br)cc1OCc1cccnc1 [Example 6, (S)-isopropyl N-(4-(2-bromo-3-phenylbenzyloxy)-5-chloro-2-(pyridin-3-yl-methyleneoxy)benzyl) serinate dihydrochloride]

IC50 [1]: 4.11e-08 M
Structure (SMILES): O=C(O)CNCc1cc(Cl)c(OCc2cccc(-c3ccccc3)c2Br)cc1OCc1cccnc1 [Example 12, N-(4-(2-bromo-3-phenylbenzyloxy)-5-chloro-2-(pyridin-3-yl-methyleneoxy)benzyl) glycine]

IC50 [1]: 1.48e-07 M
Structure (SMILES): CCOC(=O)C(CO)NCc1cc(Cl)c(OCc2cccc(-c3ccccc3)c2Br)cc1OCc1cccnc1 (stereo not drawn) [Example 1, Ethyl N-(4-(2-bromo-3-phenylbenzyloxy)-5-chloro-2-(pyridin-3-yl-methyleneoxy)benzyl) serinate dihydrochloride]

IC50 [1]: 4.99e-06 M
Structure (SMILES): CC[C@H](C)[C@H](NCc1cc(Cl)c(OCc2cccc(-c3ccccc3)c2Br)cc1OCc1cccnc1)C(=O)O [Example 22, N-(4-(2-bromo-3-phenylbenzyloxy)-5-chloro-2-(pyridin-3-yl-methyleneoxy)benzyl) isoleucine]
